The nature of data set [1]: Stability tests on rifampicin in acid, neutral and basic environments (FIG. 1). The data set is classed as physicochemical.
The conditions of data set [2]: cited from earlier work.
For data set [3] the following is noted: determined by the intestinal pH values; cited from earlier work.
The conditions of data set [4]: oral, 600 mg, healthy volunteers; cited from earlier work.
The conditions of data set [5]: in vivo, cited from earlier work.

As for `CO[C@H]1/C=C/O[C@@]2(C)Oc3c(C)c(O)c4c(O)c(c(/C=N/N5CCN(C)CC5)c(O)c4c3C2=O)NC(=O)/C(C)=C\C=C\[C@H](C)[C@H](O)[C@@H](C)[C@@H](O)[C@@H](C)[C@H](OC(C)=O)[C@@H]1C` [rifampicin], the stability result in data set [1] (acid environment) is “less stable”; in data set [1] (neutral and weakly alkaline environments), “sufficiently stable”. Further, in data set [2], the pKa (commonly the negative logarithm of the acid dissociation constant) is listed as 1.7. Further, the “solubility in the intestine” value in data set [3] was 1000 to 6000 µg/mL. Moreover, in data set [4], the “maximum blood concentration (Cmax)” value is 9000 ng/mL. Besides, the “dose eliminated in the urine” value in data set [5] (po) is recorded as “approx. 20 % of the dose”. The “amount present in the plasma relative to that eliminated by the renal route” value in data set [5] is on record as 5 times.

Values taken from US20130115286A1, “ORAL ADMINISTRATION FORMS FOR CONTROLLED RELEASE OF RIFAMPICIN FOR THE TREATMENT OF BACTERIAL INFECTIONS AND INFLAMMATORY DISEASES OF THE GASTROINTESTINAL TRACT” (priority 2010, published 2013).
